Assay results published in US10966943B2, “Methods and compositions for treatment of asthma or parkinson's disease” (InnoPharmaScreen Inc., priority 2018, dated 2021).
“Also recorded” adds a separate entry of the source.

Tests used:
OVA-challenged mice = assay: OVA-induced asthma in mice (BAL fluid, IgE, lung histology); format: in vivo
Method: 25 mg Ovalbumin (OVA) and 1 mg aluminum hydroxide hydrate (AlOH3) were dissolved in […] of sterile saline solution and sensitized by intraperitoneal administration at 0 and 21 days. At the end of the observation period, all living animals were anesthetized using Isoflurane, and blood was collected from the vena cava/abdominal aorta. Lungs are removed and washed with sterile saline solution. […] of sterile saline was filled in a 1 mL syringe, and the injection and recovery were repeated three times. The washed solution was lightly centrifuged (300 rpm, 10 minutes) and the supernatant was frozen and used for analysis of CXCL1 (ab216951, Abcam PLC) IL-17A (ab199081, Abcam PLC) and CCL3 (ab100726, Abcam PLC). The precipitate was resuspended in the same amount of sterile saline solution and used for eosinophil count and total cell count. The collected blood was left at room temperature for 30 minutes and centrifuged at 3,000 rpm for 20 mins. to separate serum and used for total IgE and Ova-specific IgE analysis. Histopathological examination was performed using lung tissue fixed in formalin. Lung tissues extracted at autopsy were placed in a cassette and submerged in 10% Neutral buffered formalin (10% NBF) at least 20 times the tissue volume. After fixation, the tissue was cut to about 4 mm in thickness and fabricated into paraffin blocks after general tissue treatment and embedding. […]

[1] = Mast cell number and serum IgE level; format: in vivo; details: FIG. 8
human Caspase-1 = biological target: T1, human Caspase-1 (Homo sapiens, UniProt P29466); assay: Caspase-1 activity in HMC-1 cell-based assay; details: HMC-1 cells; FIG. 7, FIG. 9
T1 construct: endogenous in cells; host or cells: HMC-1 (human mast cell line)
T1 sequence (P29466 120-404): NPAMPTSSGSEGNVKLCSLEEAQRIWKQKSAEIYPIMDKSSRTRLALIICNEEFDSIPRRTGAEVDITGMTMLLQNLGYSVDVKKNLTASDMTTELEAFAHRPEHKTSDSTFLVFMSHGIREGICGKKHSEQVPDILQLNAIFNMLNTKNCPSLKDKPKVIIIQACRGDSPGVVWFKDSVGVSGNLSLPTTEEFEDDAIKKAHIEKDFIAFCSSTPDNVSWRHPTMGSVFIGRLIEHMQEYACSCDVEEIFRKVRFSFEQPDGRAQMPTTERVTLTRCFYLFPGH
From the text: Using HMC-1 (human mast cell line) cell-based assay, IPS-07005 ((IPS-07004+Montelukast) inhibited the activity of Caspase-1, a critical component of inflammasome, to suppress the conversion of Pro-TSLP, IL-1beta, and -IL-18 to active forms as shown in FIG. 9.

[2] = test system: A549 lung carcinoma cells; assay: In vitro cell viability assay (MTT); format: cell-based, human; details: IPS-07004 for 24 hrs, FIG. 1
Method: A549 lung carcinoma cells (1×10^3/well) were seeded on a 96-well plate for 16 hrs. After starvation for 24 hrs., the cells were pretreated with LPS or IL-1b for 4 hrs. The cells were then treated with IPS-07004 for 24 hrs. in a dose-dependent manner. After 48 hrs. of incubation, MTT [3-(4,5-dimethylthiazol-2-yl)-2,5-diphenyl-tetrazolium bromide] solution (5 mg/ml) was added to each well in an amount of 1/10 of total volume, and the cells were incubated for 2 hrs. at 37° C.
To examine the survival rate for A549 cells treated with IPS-07004, an in vitro cell viability assay was performed using MTT.

IL-6 = assay: ELISA of IL-6 in A549 cells induced by LPS or IL-1beta; format: cell-based, human; details: dose-dependent
Method: (§1) A549 cells (1×10^5/well) were seeded on a 96-well plate for 16 hrs. After starvation for 24 hrs., the cells were pretreated with LPS or IL-1beta for 4 hrs. The cells were then treated with IPS-07004 for 24 hrs. in a dose-dependent manner. Cytokines levels (IL-6 and IL-8) in media were analyzed in accordance with the manufacturer's specification (BD Biosciences Pharmingen, San Diego, Calif., USA).
(§2) To assess whether IPS-07004 inhibits the expression of IL-6 and IL-8, which play a critical role in asthma pathology, ELISA of the cytokines in A549 cells was employed.

[3] = test system: TSLP (Thymic Stromal Lymphopoietin); assay: TSLP expression in HMC-1 cells; format: cell-based, human; details: FIG. 7
[4] = test system: TSLP (Thymic Stromal Lymphopoietin); assay: TSLP expression in DNCB mice; format: in vivo; details: DNCB (2,4-dinitrochlorobenzene) mice; FIG. 7
IL-8 = assay: ELISA of IL-8 in A549 cells induced by LPS or IL-1beta; format: cell-based, human; details: dose-dependent
Method: as §1, §2

MPTP-injected mice = assay: MPTP-induced Parkinson's disease mice (pole test, TH, IL-1b); format: in vivo
Method: For 1-methyl-4-phenyl-1,2,3,6-tetrahydropyridine (MPTP) intoxication, the mice received four intraperitoneal (i.p.) injections of MPTP-HCl (20 mg/kg, free base in saline; Sigma-Aldrich, St. Louis, Mo.) dissolved in PBS at 2 h intervals. Twelve hours after the last MPTP injection, the MPTP-injected mice were received IPS-07004, Montelukast, or IPS-07005 once daily through p.o. administrations.
To examine the effect of IPS-07004 on abnormal behavior of PD mice, Pole test (T-turn and T-LA time) was carried out. PD was induced in mice treated with MPTP (20 mg/kg, I.P) and the mice were administered with IPS-07004 at a dose of 10 mg/kg. And then pole test was performed in the mice. which can measure bradykinesia, a hallmark of Parkinson's disease. The T-turn measures the time the black mouse turns down from the top of the pole. IPS-07004 reduced the T-turn and T-LA time compared with MPTP-treated control group and L-Dopa-treated group, as shown in FIG. 18.

[5] = A549 cells induced by LPS, FIG. 2
[6] = MPTP (20 mg/kg, I.P) mice, 10 mg/kg, compared with MPTP-treated control group and L-Dopa-treated group, FIG. 18

Row | SMILES | eosinophil number in BALF (OVA-challenged mice; compared with the OVA-challenged group, FIGS. 13B, 13C) | mast cell number [1] | serum IgE level [1] | Caspase-1 activity (human Caspase-1) | viability of A549 cells (MTT) ([2]; cells induced by IL-1beta) | viability of A549 cells (MTT) ([2]; cells induced by LPS) | expression level of IL-6 (IL-6; A549 cells induced by IL-1beta) | expression level of IL-6 (IL-6; [5]) | TSLP expression [3] | TSLP expression [4] | expression level of IL-8 (IL-8; A549 cells induced by IL-1beta) | expression level of IL-8 (IL-8; [5]) | Pole test T-LA time (MPTP-injected mice; [6]) | Pole test T-turn time (MPTP-injected mice; [6]) | tyrosine hydroxylase (TH) level in striatum and Substantia nigra (immunohistochemistry) (MPTP-injected mice; PD mice brain, compared with MPTP-treated control group and L-Dopa-treated group, FIG. 19) | IL-1b expression in PD brain (MPTP-injected mice; PD mice, FIG. 20) | number of goblet cells (PAS staining of lung sections) (OVA-challenged mice; high dose of Montelukast, versus OVA-challenged group, FIGS. 15A and 15B)
1 | [H]/N=C(\N/C(=N/[H])Nc1ccc(Cl)cc1)NC(C)C [IPS-07004, proguanil] | decreased | inhibitory effect | inhibitory effect | inhibitory effect; also recorded: inhibited | little or no effect | little or no effect | reduced | reduced | inhibitory effect | inhibitory effect | reduced | reduced | reduced | reduced | decreased | reduced | –
2 | CC(C)(O)c1ccccc1CC[C@@H](SCC1(CC(=O)O)CC1)c1cccc(/C=C/c2ccc3ccc(Cl)cc3n2)c1 [Montelukast, montelukast] | – | – | – | – | – | – | – | – | – | – | – | – | – | – | – | – | significantly lower
